How the values were obtained:
Assay type in all cases: cell-based
[1] = system: human mammary cancer cell line; assay: Selective in vitro inhibition of breast cancer cell growth (panel of cell lines, Test Example 6); conditions: Table 6 cell lines
Procedure: (§1) 100 μl (containing 2,000 cells) of a cell suspension of various human breast cancer cell lines shown in [Table 6] was seeded in each well of the 96-well microtiter plates. The cells were incubated at 37° C. in a 5% carbon dioxide gas incubator. Next day, 100 μl of a 2 fold serial dilution of a compound solution was added to each well. The cultures were incubated for 3 days. The solution containing the compound was removed and the cells were washed with water. To the cells was added a 0.4% (V/W) dye SRB (dissolved in 1% acetic acid) solution to fix and stain the cell protein. The dye solution was removed and the fixed and stained cell protein was washed. The protein-bound dye was extracted with 200 μl of 10 mM Tris buffer. The optical density of the extracted dye was determined at the wavelength of 540 nm to estimate the quantity of the cells in terms of the protein quantity. Designating the protein quantity in the control to which no compound solution was added as 100%, the proportion of the residual protein quantity in each treated group was calculated, and IC50, which was the concentration of the compound required to inhibit the residual protein quantity to 50% the quantity of the control, was calculated.

HER2 = HER2 (Homo sapiens, UniProt P04626); assay: Inhibition of phosphorylation of receptor tyrosine in human breast cancer cells (2), MCF-7, heregulin-stimulated; design: Human breast cancer cell line MCF-7 was used; endogenous in cells; host or cells: MCF-7; conditions: heregulin control = 100%, read-out: Phosphorylation of receptor tyrosine residue (%)
Chain of HER2 (P04626 23-1255): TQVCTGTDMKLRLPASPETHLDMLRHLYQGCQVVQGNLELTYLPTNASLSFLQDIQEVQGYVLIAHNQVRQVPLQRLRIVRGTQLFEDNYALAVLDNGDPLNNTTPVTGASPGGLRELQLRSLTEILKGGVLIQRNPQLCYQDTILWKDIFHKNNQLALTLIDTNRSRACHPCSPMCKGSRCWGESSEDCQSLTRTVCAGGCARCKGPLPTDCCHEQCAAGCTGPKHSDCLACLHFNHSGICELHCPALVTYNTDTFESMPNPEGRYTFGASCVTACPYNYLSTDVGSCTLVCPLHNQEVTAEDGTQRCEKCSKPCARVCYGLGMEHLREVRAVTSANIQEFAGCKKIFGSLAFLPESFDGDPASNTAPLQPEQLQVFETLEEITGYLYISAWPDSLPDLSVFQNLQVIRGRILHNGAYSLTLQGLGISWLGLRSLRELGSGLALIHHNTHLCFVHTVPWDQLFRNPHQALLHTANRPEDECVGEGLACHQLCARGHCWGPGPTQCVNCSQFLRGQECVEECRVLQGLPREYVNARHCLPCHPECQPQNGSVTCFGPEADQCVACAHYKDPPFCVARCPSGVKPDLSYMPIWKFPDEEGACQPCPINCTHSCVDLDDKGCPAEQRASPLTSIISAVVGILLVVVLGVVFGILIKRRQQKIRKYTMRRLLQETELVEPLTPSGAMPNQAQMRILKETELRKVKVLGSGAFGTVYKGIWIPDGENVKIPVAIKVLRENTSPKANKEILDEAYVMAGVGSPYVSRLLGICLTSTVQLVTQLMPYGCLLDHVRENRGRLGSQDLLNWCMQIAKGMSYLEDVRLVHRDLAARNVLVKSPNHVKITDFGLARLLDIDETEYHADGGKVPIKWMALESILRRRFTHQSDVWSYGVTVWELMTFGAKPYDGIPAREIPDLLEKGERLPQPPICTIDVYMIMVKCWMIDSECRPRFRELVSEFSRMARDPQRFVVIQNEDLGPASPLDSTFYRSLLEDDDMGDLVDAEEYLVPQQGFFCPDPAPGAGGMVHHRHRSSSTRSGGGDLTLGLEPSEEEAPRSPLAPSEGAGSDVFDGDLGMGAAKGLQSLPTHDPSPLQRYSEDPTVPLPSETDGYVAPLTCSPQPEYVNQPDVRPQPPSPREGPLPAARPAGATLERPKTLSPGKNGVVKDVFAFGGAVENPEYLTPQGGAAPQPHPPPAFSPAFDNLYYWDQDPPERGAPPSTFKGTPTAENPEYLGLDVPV
Procedure: Human breast cancer cell line MCF-7 was used. 1,000 μl of the cell suspension (250,000 cells) was seeded in each well of the 24-well plates. The culture were incubated at 37° C. in a 5% carbon dioxide gas incubator. On the next day, 100 μl of the 10-fold serial dilution of each compound solution was added to each well and, 2 hours later, 0.5 μg/ml of heregulin was added to it. After 5 minutes the extract solution was added to it to terminate the reaction, and the protein fraction was extracted. The protein was fractionated by the protein electrophoresis. The protein in the electrophoretic gel was transferred to a nylon filter. The filter was allowed to react with the phosphorylated tyrosine-specific antibody. The reaction product was fluorescence-labeled to expose a photofilm. The intensity of the exposure on the photofilm was quantitated by an image-analyzing apparatus. The proportion of the phosphorylation of HER2 tyrosine in the cells added with a compound solution of each concentration was calculated designating the phosphorylation of HER2 tyrosine in the heregulin-added cells as 100%.

MDA-MB-453 [2] = assay: In vitro inhibition of cell proliferation (1); conditions: Homo sapiens, 72 h; Breast cancer MDA-MB-453; 3 days; SRB
Procedure: 100 μl (containing 2,000 cells) of a cell suspension of human breast cancer cell line MDA-MB-453 was seeded in each well of the 96-well microtiter plates. The cultures were incubated at 37° C. in a 5% carbon dioxide gas incubator. On the next day, 100 μl of the 2-fold serial dilution of each compound solution was added to each well and the mixtures were cultured for 3 days. The solution containing the compound was removed and the cells were washed with water. To the cells was added a 0.4% (W/V) dye SRB (dissolved in 1% acetic acid) solution to fix and stain the cell protein (Skehan P. et al., Journal of the National Cancer Institute Vol.82, pp.1107-1112, 1990). The dye solution was removed and the fixed and stained cell protein was washed. The protein-bound dye was extracted with 200 μl of 10 mM Tris buffer. The optical density of the extracted dye was determined at the wavelength of 540 nm to estimate the quantity of the cells in terms of the protein quantity. Designating the protein quantity in the control to which no compound solution was added as 100%, the proportion of the residual protein quantity in each treated group was calculated, and IC50, which was concentration of the compound required to inhibit the residual protein quantity to 50% the quantity of the control, was calculated.

ASPC-1 = assay: Selective in vitro inhibition of breast cancer cell growth; conditions: Homo sapiens, ASPC1, 72 h; Pancreatic cancer ASPC-1; 3 days; SRB; read-out: IC50, inhibition of cell proliferation
Procedure: as §1

SKBR3 = assay: as above; conditions: Homo sapiens, SK-BR-3, 72 h; Mammary cancer SKBR3; 3 days; SRB; read-out: IC50, inhibition of cell proliferation
Procedure: as §1

MDA-MB-468 = assay: as above; conditions: Homo sapiens, 72 h; Mammary cancer MDA-MB-468; 3 days; SRB; read-out: IC50, inhibition of cell proliferation
Procedure: as §1

BT-20 = assay: as above; conditions: Homo sapiens, 72 h; Mammary cancer BT-20; 3 days; SRB; read-out: IC50, inhibition of cell proliferation
Procedure: as §1

T-47D = assay: as above; conditions: Homo sapiens, T47D, 72 h; Mammary cancer T-47D; 3 days; SRB; read-out: IC50, inhibition of cell proliferation
Procedure: as §1

HSC-1 = assay: as above; conditions: Homo sapiens, 72 h; Epidermal cancer HSC-1; 3 days; SRB; read-out: IC50, inhibition of cell proliferation
Procedure: as §1

WiDr = assay: as above; conditions: Homo sapiens, 72 h; Large intestinal cancer WiDr; 3 days; SRB; read-out: IC50, inhibition of cell proliferation
Procedure: as §1

BT-474 = assay: as above; conditions: Homo sapiens, 72 h; Mammary cancer BT-474; 3 days; SRB; read-out: IC50, inhibition of cell proliferation
Procedure: as §1

MRC5 = assay: as above; conditions: Homo sapiens, 72 h; Normal MRC5; 3 days; SRB; read-out: IC50, inhibition of cell proliferation
Procedure: as §1

MDA-MB-453 [3] = assay: as above; conditions: Homo sapiens, 72 h; Mammary cancer MDA-MB-453; 3 days; SRB; read-out: IC50, inhibition of cell proliferation
Procedure: as §1

activity at 0.4 µM (HER2; MCF7, 0.4 μM): 67%
activity at 1.6 µM (HER2; MCF7, 1.6 μM): 41%
activity at 6.3 µM (HER2; MCF7, 6.3 μM): 32%
activity at 25 µM (HER2; MCF7, 25 μM): 30%
IC50 (MDA-MB-453 [2]): 250 nM
IC50 (ASPC-1): 2500 nM
IC50 (SKBR3): 1000 nM
IC50 (MDA-MB-468): 520 nM
IC50 (BT-20): 520 nM
IC50 (T-47D): 570 nM
IC50 (HSC-1): 2100 nM
IC50 (WiDr): 2100 nM
IC50 (BT-474): 290 nM
IC50 (MDA-MB-453 [3]): 250 nM
Compound: C(=C\c1nc(COc2ccc(CCCn3ccnc3)cc2)co1)/c1ccccc1 [Compound 8, 4-[4-[3-(1-imidazolyl)propyl]phenoxymethyl]-2-[(E)-2-phenylethenyl]oxazole]
Selective inhibition of cell growth [1]: inhibit specifically the cell growth of human mammary cancer cell line
IC50 (MRC5): 15000 nM
